The values below come from patent US11331294B2, “Benzoquinone derivative E3330 in combination with chemotherapeutic agents for the treatment of bladder cancer” (Indiana University Research and Technology Corporation, priority 2007, dated 2022).

One assay has as its system T24 cells. Briefly: Methylene blue cell growth assay T24. The format is cell-based. The note with it: Homo sapiens, T-24, read-out: cell growth-inhibitory IC50. The method, then:
FIGS. 31A & 31B. Treatment with APE1/Ref-1 inhibitors potently blocks bladder cancer cell proliferation and activated Caspase 3/7. […] The IC50 values for FIG. 31A were determined using the methylene blue assay, n=4. […] T24 and UC3 cells were treated with APX2009 and APX2014 at the IC50 and IC90 and monitored over time for activation of capsase 3/7 by an increase in red fluorescence. Time course graphs are shown in FIG. 31B and representative images at 48 hr are shown in FIG. 32A (described more fully below), n=3-4.
FIGS. 36A-36H. […] In cytokine-induced T24 and UC3 cells NFκB-driven luciferase (FIG. 36A), STAT3-driven luciferase (FIG. 36B), and AP-1-driven luciferase (FIG. 36C) were quantified and normalized via Renilla following treatment with the corresponding cell growth-inhibitory IC50 concentrations. T24 cells were treated with APX2009 (8.5 μM) and APX2014 (6.5 μM), and UC3 cells were treated with APX2009 (6.1 μM) and APX2014 (4.6 μM) for 24 h. (*-p<0.05 APX treated vs vehicle, n=4). […] In the panels of FIGS. 36F & 36G, co-expression of survivin and APE1/Ref-1 was analyzed in superficial (FIG. 36F) and invasive human bladder tumors (FIG. 36G) in patients, and found nearly universal overlap of positivity in both in human samples. This was also true in cisplatin-refractory patients from the tissue microarray specimens (FIG. 36H). […]

Another assay has as its system RP-B-02 spheroids. In words: 3D spheroid growth assay RP-B-02. It is filed as cell-based, human. The settings on record: p<0.05. An excerpt:
RP-B-01 and RP-B-02 cells were resuspended in normal growth media containing 3% Reduced Growth Factor Matrigel (BD Biosciences) at a cell density of 1,500 and 3,000 cells/well, respectively and plated in ultra-low adherence 96-well plates (Corning).
Spheroids were allowed to form and then treated on days 4, 8, and 12 following plating with media containing 5% serum, 3% Reduced Growth Factor Matrigel, and APE1/Ref-1 inhibitors. Vehicle control, DMSO, was less than 0.01% of the volume, and was equivalent in each well. On Day 15, Alamar blue reagent (LifeTechnologies) was added to each well (10 μL/well) and incubated for 24 hours.
In order to mimic tumor growth more accurately in a relevant microenvironment and in a more robust model for predicting response to treatment, a three-dimensional (3D) culture model of patient-derived RP-B-01 and RP-B-02 bladder cancer cells was used. Both RP-B-01 and RP-B-02 cell lines are transitional cell carcinoma staged as T4bN1Mx and T2bN0Mx Grade III tumors, respectively.

For the next assay, the system named is UC3 and T24 cells. In words: Incucyte caspase-3/7 apoptosis assay. The format is cell-based, human. The settings on record: red fluorescence over time. The method, then: UC3 and T24 cells were plated in 96-well plates at 3,500 cell/well and allowed to attach overnight. Increasing amounts of APX2009 or APX2014 were added to each well along with 1 μM of the caspase reagent (Caspase-3/7 Red, Essen Bioscience) and then the cells were allowed to recover for 2 hours prior to beginning imaging with the Incucyte system (Essen Bioscience). Each well was imaged for phase contrast as well as red fluorescence every 2 hours for 96 hours. The Incucyte software generated movies of the cells following treatment as well as real-time imaging data with red fluorescence normalized to the percent confluency of the well.
To assay for caspase-3/7 mediated apoptosis, the increase in red fluorescence was analyzed over time following the addition of APX2009 and APX2014.

A further assay deals with STAT3. Briefly: STAT3-driven luciferase reporter. It is filed as cell-based, human. The settings on record: T24 and UC3 cells induced with IL-6, IC50 concentration, 24 h. On the procedure: FIGS. 36A-36H. […] In cytokine-induced T24 and UC3 cells NFκB-driven luciferase (FIG. 36A), STAT3-driven luciferase (FIG. 36B), and AP-1-driven luciferase (FIG. 36C) were quantified and normalized via Renilla following treatment with the corresponding cell growth-inhibitory IC50 concentrations. T24 cells were treated with APX2009 (8.5 μM) and APX2014 (6.5 μM), and UC3 cells were treated with APX2009 (6.1 μM) and APX2014 (4.6 μM) for 24 h. (*-p<0.05 APX treated vs vehicle, n=4). […] In the panels of FIGS. 36F & 36G, co-expression of survivin and APE1/Ref-1 was analyzed in superficial (FIG. 36F) and invasive human bladder tumors (FIG. 36G) in patients, and found nearly universal overlap of positivity in both in human samples. This was also true in cisplatin-refractory patients from the tissue microarray specimens (FIG. 36H).
The transcriptional activity of NFκB, STAT3, and AP-1 is under redox control by APE1/Ref-1. Therefore, NFκB, STAT3, or AP-1 transcriptional activity was quantified following treatment with APE1/Ref-1 redox inhibitors (FIGS. 36A-36C).

Assay [1] relates to multiple myeloma cells. In words: Phospho-histone H2AX western blot (DNA double stranded breaks). The settings on record: combination with melphalan. It is filed as cell-based. On the procedure:
(§1) APX3330 in combination with chemotherapeutic Melphalan. […] Synergistic plots made using CalcuSyn software. APX3330 was either given alone or in combination with melphalan. As an indicator of DNA double stranded breaks (DSBs), the phosphorylation of histone H2AX at Ser^139 was measured with a phosphorylation-specific H2AX antibody from Upstate Cell Signaling Solutions (Waltham, Md.). Cells were treated with melphalan alone or melphalan plus APX3330. After drug treatment, exponentially growing cells were harvested, washed in cold PBS, and lysed in about 100 μL RIPA assay buffer as described above. Protein was quantified and electrophoresed in SDS gel-loading buffer on a 12% SDS-polyacrylamide gel. Mouse monoclonal anti-phosphohistone H2AX (about 1:1000) or anti-actin antibody (about 1:1000; as a loading control, LabVision Corp., NeoMarkers, Fremont, Calif.) was used to probe for protein levels as described previously. Bands were detected using a chemiluminescence kit from Roche Applied Biosciences (Indianapolis, Ind.). The bands were visualized using Bio-Rad Chemidoc XRS (Hercules, Calif.) and quantitated using Chemidoc software, Quantity One 4.6.1.

The next assay deals with ECFC colonies. Briefly: Limiting dilution assay (LDA). The format is cell-based. The note with it: 25, 37.5, 50 μM. The method, then: Limiting dilution assay. […] ECFCs were cultured as previously described (Blood, 1 Nov. 2004, Vol. 104, No. 9, pp. 2752-2760). ECFC colonies appeared between 5 and 22 days of culture. Colonies and the number of cells per colony were counted by visual inspection using an inverted microscope. […] Increasing amounts of APX3330(RN3-3) leads to a decrease in the number of colonies with large numbers of cells and an increase in colonies with only small cell numbers indicative of inhibition of cell growth. (FIG. 9). (In FIG. 9, the bars are, left to right, EtOH, and E330 dosed at 25 μM, 37.5 μM, and 50 μM.)

Assay [2] concerns multiple myeloma cells. Briefly: MTS assay of multiple myeloma cells, combinations (CalcuSyn). The format is cell-based. The method, then: as §1, with “4.6.1. […]” for “4.6.1.”
APX3330 in combination with Methoxyamine-multiple myeloma cells. […] Data was calculated using the CalcuSyn software which is based on the Chou-Talalay algorithm (Chou-Talalay; Advances in Enzyme Regulation 22, 27-55). […]

Consider `CCC/C(=C\C1=C(OC)C(=O)c2ccccc2C1=O)C(=O)N(CC)CC` [APX2009, [(2E)-2-[(3-methoxy-1,4-dioxo-1,4-dihydronaphthalen-2-yl)methylidene]-N,N-diethylpentanamide]], for which the IC50 in the assay on T24 cells came to 8.5 µM. Also, the “potency in RP-B-02 cells in 3D culture relative to APX3330” value in the assay with RP-B-02 spheroids is given as “more potent in the RP-B-02 cells than parent compound APX3330”. For the same compound, in the assay on UC3 and T24 cells, the caspase-3/7 activation entry is “dose-dependent increase in caspase activation”. Moreover, the STAT3 transcriptional activity entry with STAT3 is listed as “significantly blocked”.

In the case of `CCCCCCCCC/C(=C\C1=C(C)C(=O)C(OC)=C(OC)C1=O)C(=O)O` [APX3330], the “DNA double stranded breaks (phospho-H2AX), melphalan plus APX3330 compared to melphalan alone” value in the assay with multiple myeloma cells [1] is “increase in DSBs”. For the same compound, the “growth of large cell number colonies” value in the assay on ECFC colonies was “inhibit growth of large cell number colonies”. The “killing of multiple myeloma cells in combination with melphalan” value in the assay on multiple myeloma cells [2] (combination with melphalan, 72 hours) is on record as “synergistically enhance the killing of multiple myeloma cells”. For the same compound, the “killing of multiple myeloma cells in combination with methoxyamine” value with multiple myeloma cells [2] (combination with methoxyamine) is reported as “enhanced killing of multiple myeloma cells”.

The IC50 is the concentration that gives 50% inhibition.
